Experimental findings from paper PMC12671080, “Antimicrobial activities of quaternary phosphonium-type small molecular antibacterial materials against methicillin-resistant Staphylococcus aureus” (Microbiology Spectrum, 2025) are described below.

The viability is the share of living cells, or the viability signal relative to a control. A high value points to less harm to the cells.

Series [1] deals with Escherichia coli (E. coli, ATCC 25922). In words: MIC test, modified broth microdilution. In kind it is cell-based. As to conditions: read-out: Minimal inhibitory concentration (MIC) against E. coli. The procedure:
(§1) All bacteria cells were first pre-grown overnight on blood agar plates at 37°C in a bacteriological incubator. Next, a single colony was transferred into fresh Muller Hinton broth (MHB) medium and harvested by centrifugation during the exponential growth phase, before being resuspended in sterile 0.9% physiological saline. Finally, bacterial cells were adjusted to the 0.5 McFarland standard (1.5 × 10^8 CFU/mL), and the solution was diluted in MHB to the predetermined concentrations.
(§2) MICs of all materials against MRSA, E. coli, and P. aeruginosa strains were determined using a modified broth microdilution method ([28]). Briefly, log-phase cultures (1.0 × 10⁶ CFU/mL) of each strain were inoculated into 96-well microtiter plates preloaded with serially diluted test compounds.
In general terms: In broth dilution the organism is exposed to a series of concentrations in liquid medium.

A further series concerns MRSA (ATCC 43300). In words: MIC test, modified broth microdilution. As to conditions: Staphylococcus aureus, 24 h. It is filed as cell-based. As for the experimental part:
as §1, §2

Series [2] can be described thus: Cytotoxicity assay (CCK-8). To be noted: mouse. As for the experimental part: (§3) The cytotoxicity of the nanocomposite was evaluated by CCK-8 assay using a commercial kit (CK04; Dojindo, Japan). […] Cell viability was calculated according to the following formula: cell viability (%) = (Ae − Ab)/(Ac − Ab) × 100% (Ab:OD of blank wells at 450 nm, Ac:OD of control wells at 450 nm, Ae:OD of experimental wells at 450 nm).

In series [3] the test system is Pseudomonas aeruginosa (P. aeruginosa, ATCC 27853). In words: MIC test, modified broth microdilution. In kind it is cell-based. As to conditions: ATCC27853, 24 h. The procedure: as §1, §2
For series [4], the system named is MRSA. In words: Protein leakage assay (Bradford). In kind it is cell-based, Staphylococcus aureus. As to conditions: 32 µg/mL (2 × MIC), 24 h. The procedure:
The quantitative detection of protein leakage of bacteria was carried out by protein leakage assay using a Bradford Protein Assay Kit (P0006; Beyotime, Nantong, China). […] The bacterial solution without [PTPP]·I was used as a control. The mixture was incubated in a shaker at 37°C for 24 h and then centrifuged at 10,000 rpm at 4°C for 10 min. The supernatant was immediately collected, and protein detection reagent was added to determine the optical density (OD 600) using a Microplate Reader (Thermo Fisher Scientific, Multiskan GO) and finally converted to protein concentration values based on the standard curve.

Series [5] has as its system MRSA biofilm. In words: Crystal violet staining of biofilm formation. As to conditions: 24 h. In kind it is cell-based, Staphylococcus aureus. As for the experimental part:
Crystal violet staining was performed by the method reported previously to measure the anti-biofilm effect of [PTPP]·I ([32]). […] A parallel study was also performed with LB broth as a blank control and the MRSA suspension was cultured in an empty well as a positive control. After incubation, the non-adhered bacteria were removed by gently washing with PBS at least three times, and the adherent biofilm was fixed with methanol for 15 min and stained with 0.1% (wt/vol) crystal violet for another 15 min. Then the excess crystal violet was removed by repeatedly washing with PBS until the blank control wells were colorless. Finally, crystal violet bound to the biofilm was dissolved in 500 µL 95% ethanol and added into 96-well plates to measure the absorbance at 595 nm using a Microplate Reader (Thermo Fisher Scientific, Waltham, MA, USA).

The subject of series [6] is MRSA. In words: Bacterial growth curve study (OD600). It is filed as cell-based, Staphylococcus aureus. The procedure:
Bacterial growth curve of [PTPP]·I against MRSA cells was determined by the method reported previously ([29]). […] The bacterial solution without [PTPP]·I was used as a positive control. OD values were continuously measured for 36 h at hourly intervals to construct bacterial growth curves.

Series [7] relates to MRSA. Briefly: Agar diffusion test. In kind it is cell-based, Staphylococcus aureus. To be noted: 10 µL of 512 µg/mL on 6.0 mm disc, overnight 37°C. As for the experimental part:
Bacterial suspensions (1.5 × 10^8 CFU/mL) were spread onto Mueller-Hinton (M-H) agar plates using sterile cotton swabs to form a uniform carpet. A 10 µL solution of each of the five nanomaterials at a concentration of 512 µg/mL, along with PBS, was carefully applied to the surface of filter paper discs (6.0 mm in diameter), which were then placed onto M-H agar plates and incubated overnight at 37°C. Inhibition zones appeared as transparent halos on the agar surface.
For orientation: In agar diffusion tests the substance spreads into inoculated agar from a disc or well.

The test system of another series is L929 cells. In words: Cytotoxicity assay (CCK-8). As to conditions: at the concentration of MIC, 24 h, CCK-8. As for the experimental part:
as §3

Series [8] deals with MRSA biofilm. Briefly: Resazurin staining, metabolic activity of bacteria within biofilms. In kind it is cell-based, Staphylococcus aureus. As to conditions: 24 h. As for the experimental part:
The metabolic activity of bacteria within biofilms was tested using resazurin (Sigma Aldrich, St. Louis, MO, USA), as previous report with slightly modified ([33]). Bacterial suspensions were exposed to graded concentrations (range 4–32 μg/mL) of [PTPP]·I in MHB broth for 24 h at 37°C. After incubation, the wells were washed three times with PBS and 0.01% final concentration of resazurin (Sigma Aldrich, St. Louis, MO, USA) was added, followed by an incubation for 1 h. Finally, the absorbance was detected in a Multi-mode detection platform (Molecular Devices, SpectraMax i3x) in fluorescence mode with excitation at 570 nm and emission at 600 nm. Bacterial suspensions without [PTPP]·I were set as a positive control, and pure MHB broth was set as a blank control, which were taken as 100% and 0% metabolic activity, respectively. Metabolic activity was calculated according to the following formula: metabolic activity (%) = (ΔAbs of sample − ΔAbs of blank control)/(ΔAbs of positive control − ΔAbs of blank control); ΔAbs = absorbance at 570 nm − absorbance at 600 nm.

In series [9] the test system is MRSA. In words: SEM of bacterial morphology and bacterial biofilm. It is filed as cell-based, Staphylococcus aureus. As to conditions: 24 h. As for the experimental part:
Scanning electron microscopy was used to observe bacterial morphology and bacterial biofilm formation. […] Samples were then washed with PBS and dehydrated in a graded ethanol series (30%, 50%, 70%, 80%, 90%, 95%, and 100%). After lyophilization and gold spraying, the MRSA cells were visualized by SEM (SU8100, Hitachi, Tokyo, Japan). Bacterial biofilms were subjected to SEM as previously reported with slight modifications ([31]). Cell crawling pieces were incubated in 1 mL of MRSA solution (1 × 10^6 CFU/mL) in a 24-well plate. […] After 24 h of incubation at 37°C, the samples were processed as described above and the MRSA biofilms on the cell crawling pieces were observed by scanning electron microscopy.

In series [10] the test system is MRSA. Briefly: Time-kill kinetics assay (colony counting). It is filed as cell-based, Staphylococcus aureus. The procedure:
The bactericidal kinetics assay was carried out with a few minor modifications as previously stated to reveal the antimicrobial effectiveness of [PTPP]·I over time ([30]). […] Bacteria were sampled every 1 h from 0 h to 6 h, diluted in a gradient, and incubated in Luria-Bertani (LB) plates at 37°C for 24 h. Finally, plates with around 30 to 300 colonies were counted and CFU/mL for each time point was calculated to construct time-kill curves. After 3 h of treatment with different concentrations of [PTPP]·I, the bacterial solution was put into PBS for several consecutive 10-fold dilutions, and 100 µL of the mixture was uniformly spread on LB agar plates and then allowed to dry for a little while. The LB agar plates were placed in a constant-temperature incubator at 37°C for 24 h, and then the colonies on the LB agar plates were counted and photographed to observe the changes in the morphology and size of MRSA colonies.

In series [11] the test system is MRSA. Briefly: Reactive oxygen species assay (DCFH-DA). It is filed as cell-based, Staphylococcus aureus. To be noted: 0.5 h. As for the experimental part:
The level of bacterial ROS induced by [PTPP]·I was detected by DCFH-DA assay (Reactive Oxygen Species Assay Kit, S0033S, Beyotime), as previously reported ([18]). Briefly, MRSA (1 × 10^8 CFU/mL) was inoculated with 10 µM of DCFH-DA in a centrifuge tube at 37°C for 30 min for probe loading. […] The bacterial solution without [PTPP]·I was included to use as a control. The samples were washed three times with sterile saline solution (0.9% NaCl). Finally, the level of bacterial total ROS was measured as the relative fluorescence intensity of the probes, which was detected in a Multi-mode detection platform (Molecular Devices, SpectraMax i3x) in fluorescence mode with excitation at 488 nm and emission at 525 nm.

[12] abbreviates: ATCC25922, broth microdilution, 37°C, 24 h.
[13] abbreviates: broth microdilution, 37°C, read-out: Minimal inhibitory concentration (MIC) against MRSA.
The mark [14] stands for this setting: L929 cells, Cell viability of L929 cells, at the concentration of MIC, 24 h, CCK-8.

Like-named read-outs stand apart in the source and are kept apart here.

Turning to `CCCC[P+](c1ccccc1)(c1ccccc1)c1ccccc1` [[BTPP]·I, n-butyl-triphenyl-phosphonium iodide], the MIC is no more than 512 µg/mL in series [1] (setting [12]) and no more than 32 µg/mL in the series on MRSA (ATCC 43300) (setting [13]). This compound also gave a viability at 24 h in series [2] (setting [14]) of roughly 95%.

Regarding `CC[P+](c1ccccc1)(c1ccccc1)c1ccccc1` [[ETPP]·I, ethyl-triphenyl-phosphonium iodide], the MIC was no more than 512 µg/mL in series [1] (setting [12]); no more than 64 µg/mL in the series with MRSA (ATCC 43300) (setting [13]); 8000 µg/mL in series [3] (broth microdilution, 37°C, 24 h, read-out: Minimal inhibitory concentration (MIC) against P. aeruginosa). The viability at 24 h in [2] (setting [14]) is roughly 90%.

In the case of `CC(C)[P+](c1ccccc1)(c1ccccc1)c1ccccc1` [[ITPP]·I, i-propyl-triphenyl-phosphonium iodide], the MIC in series [1] (setting [12]) is no more than 512 µg/mL; with MRSA (ATCC 43300) (setting [13]), no more than 64 µg/mL. This compound also came in with a viability at 24 h in series [2] (setting [14]) of roughly 95%.

For `C[P+](c1ccccc1)(c1ccccc1)c1ccccc1` [[MTPP]·I, methyl-triphenyl-phosphonium iodide], the MIC in series [1] (ATCC25922, 24 h) is no more than 512 µg/mL; with MRSA (ATCC 43300) (read-out: Minimal inhibitory concentration (MIC) against MRSA, broth microdilution, 37°C, 24 h), 128 µg/mL; in [3] (read-out: Minimal inhibitory concentration (MIC) against P. aeruginosa, broth microdilution, 37°C, 24 h), 8000 µg/mL. This compound also had a viability at 24 h in [2] of roughly 90%.

Consider `CCCCC[P+](c1ccccc1)(c1ccccc1)c1ccccc1` [[PTPP]·I, n-pentyl-triphenyl-phosphonium iodide], for which, in the series with MRSA [4], the “Protein leakage relative to control group” value was “about 2.6 times”. The “Reduction of biofilm biomass” value with MRSA biofilm [5] (1/2 × MIC) came out at 35.4%. Also, the “Reduction of biofilm biomass (biofilm inhibition rate)” value with MRSA biofilm [5] (1 × MIC) is 96.6%. For the same compound, the “Bacterial growth (OD600)” value with MRSA [6] (2 µg/mL (1/8 × MIC) to 16 µg/mL (1 × MIC)) is on record as “significantly inhibited”. In the series on MRSA [6] (at 1/2 × MIC), the “Lag phase of MRSA growth” value is on record as “up to 10 h”. Moreover, the “Inhibition halos against MRSA” value in the series with MRSA [7] is on record as “obvious inhibition halos”. The MIC was no more than 512 µg/mL in [1] (setting [12]) and 16 µg/mL in the series with MRSA (ATCC 43300) (setting [13]). Moreover, the “Cell viability of L929 cells” value with L929 cells amounted to 97%. Also, the viability at 24 h in series [2] (setting [14]) is greater than 97%. For the same compound, the “Metabolic activity of biofilm bacteria, of positive control” value with MRSA biofilm [8] (1/2 × MIC) is recorded as “more than 50%”. For the same compound, the “Metabolic activity of intra-film bacteria, of positive control” value with MRSA biofilm [8] (1 × MIC) came out at 1%. In the series with MRSA [9] (16 µg/ml (1 × MIC)), the “Biofilm on cell crawling pieces by SEM” value is recorded as “no biofilm but only the residue of bacterial disruption”. Further, the “Bacterial morphology by SEM” value in the series on MRSA [9] (32 µg/mL (2 × MIC)) is “membranes/walls of MRSA cells became rough and concave, holes appeared”. Also, the “Time to achieve survival rate less than 1%” value in the series with MRSA [10] (1 × MIC) came to 6 h. Further, in the series with MRSA [10] (1 × MIC, within 1 h), the “Reduction of viable count” value is “approximately 1 log10 CFU/mL”. The Survival rate result with MRSA [10] (4 × MIC for 2 h) was “less than 1%”. Further, the “ROS level elevation vs the control group” value in the series with MRSA [11] (1 × MIC) was found to be 20%; in the series with MRSA [11] (2 × MIC), 30%; in the series on MRSA [11] (4 × MIC), 141%.
